The source of these data is publication PMC4057736, “In Vitro Antiprotozoal Activity of Abietane Diterpenoids Isolated from Plectranthus barbatus Andr” (International Journal of Molecular Sciences, 2014).

The test system of series [1] is T. cruzi Tulahuen CL2 (benznidazole-sensitive). Briefly: Antitrypanosomal activity (Chagas), β-galactosidase readout on MRC-5 cells. Type of series: cell-based, Trypanosoma cruzi. As to conditions: for IC50: Trypanosoma cruzi, MRC5, 168 h, read-out: T. cruzi IC50. On the procedure:
(§1) The integrated panel of microbial screens and standard screening methodologies were adopted as previously described. All assays were performed in triplicate, at the Laboratory of Microbiology, Parasitology and Hygiene at the University of Antwerp, Belgium. […] The selectivity antiprotozoal potential was assessed by simultaneous evaluation of cytotoxicity on a fibroblast (MRC-5) cell line.
(§2) About 1.5 × 10^4 trypomastigotes/well were added to each well and parasite growth was assessed after 72 h at 37 °C by adding resazurin [30]. […] The color reaction was read at 540 nm after 4 h and absorbance values were expressed as a percentage of the blank controls.

Series [2] relates to Chloroquine-resistant P. falciparum 2/K 1-strain (erythrocytic schizonts). Briefly: Antiplasmodial activity (Malstat method). As to conditions: for IC50: Plasmodium falciparum, 72 h, read-out: P. falciparum IC50. It is filed as cell-based, Plasmodium falciparum. On the procedure:
as §1
Chloroquine-resistant P. falciparum 2/K 1-strain was cultured in human erythrocytes O^+ at 37 °C under a low oxygen atmosphere (3% O2, 4% CO2, and 93% N2) in RPMI-1640, supplemented with 10% human serum. Infected human red blood cells (200 μL, 1% parasitaemia, 2% haematocrit) were added to each well and incubated for 72 h. After incubation, test plates were frozen at −20 °C. Parasite multiplication was measured by the Malstat method.

Series [3] deals with Trypanosoma brucei Squib-427 strain (suramin-sensitive) trypomastigotes. The series is described as follows: Antitrypanosomal activity, resazurin readout. The conditions noted are these: for IC50: Trypanosoma brucei, 72 h, read-out: T. brucei IC50; for T. brucei SI (selectivity index): versus MRC-5 cytotoxicity. It is filed as cell-based. The method, then: as §1, §2
Series [4] can be described thus: Cytotoxicity assay (resazurin). The conditions noted are these: human, MRC-5 cells. Type of series: cell-based. On the procedure:
as §1
For the assay, 10^4 MRC-5 cells/well were seeded onto the test plates containing the pre-diluted sample and incubated at 37 °C and 5% CO2 for 72 h. Cell viability was assessed fluorimetrically after 4 h of addition of resazurin. Fluorescence was measured (excitation 550 nm, emission 590 nm) and the results were expressed as % reduction in cell viability compared to control.

In series [5] the test system is all protozoa species (P. falciparum, L. infantum, T. cruzi, T. brucei). The series is described as follows: Antiprotozoal activity, statement pooled over all protozoa species tested. Type of series: cell-based. As to conditions: for IC50: pooled over P. falciparum, L. infantum, T. cruzi, T. brucei, read-out: IC50 against all protozoa species. On the procedure:
as §1

Series [6] concerns L.infantum MHOM/MA(BE)/67 amastigotes. Briefly: Antileishmanial activity, intracellular amastigotes in primary peritoneal mouse macrophages. Type of series: cell-based, Leishmania infantum. As to conditions: for IC50: Leishmania infantum, Macrophage, 120 h, read-out: L. infantum IC50. On the procedure: as §1
L.infantum MHOM/MA(BE)/67 amastigotes were collected from the spleen of an infected donor hamster and used to infect primary peritoneal mouse macrophages. To determine in vitro antileishmanial activity, 3 × 10^4 macrophages were seeded in each well of a 96-well plate. After 2 days outgrowth, 5 × 10^5 amastigotes/well were added and incubated for 2 h at 37 °C. Pre-diluted plant extracts were subsequently added and the plates were further incubated for 5 days at 37 °C and 5% CO2. Parasite burdens (mean number of amastigotes/macrophage) were microscopically assessed after Giemsa staining, and expressed as a percentage of the blank controls without plant extract.

The mark [7] stands for this setting: Tulahuen CL2 on MRC-5 cells, 7 days.
The mark [8] stands for this setting: MRC-5 SV2 cells (fibroblast cell line).
Setting [9] is: chloroquine-resistant 2/K 1-strain.
Where [10] appears, read: intracellular amastigotes in mouse macrophages, 5 days.

Entries after “also recorded” stand apart in the source; their conditions may differ. Where two headings read alike, the source gives them in different places.

Regarding `O=C(Cn1ccnc1[N+](=O)[O-])NCc1ccccc1` [Benznidazole, reference compound], the IC50 in series [1] (setting [7]) worked out at 2.5 ± 0.6 µM.

Take `CCN(CC)CCCC(C)Nc1ccnc2cc(Cl)ccc12` (stereo not shown) [Chloroquine, reference compound]: in series [2], the IC50 was determined as 0.04 ± 0.01 µM.

In the case of `CC(C)c1ccc2c(c1)CC[C@H]1C(C)(C)CCC[C@]21C` [Compound (1), dehydroabietane], the 50% inhibitory concentration (IC50) was greater than 237 µM in series [3] (Squib-427 trypomastigotes); greater than 100 µM in series [5]; greater than 237 µM in series [1] (setting [7]); 124 ± 4.7 µM in series [2] (setting [9]); greater than 237 µM in series [6] (setting [10]). In addition, the “T. brucei SI (selectivity index)” value in series [3] was greater than 1. Besides, the IC50 at 72 h in series [4] (setting [8]) was greater than 237 µM. Further, the “antiprotozoal activity (in words)” value in series [5] (overall verdict over all protozoa tested) was “no activity against all protozoal strains; also recorded: no antiprotozoal potential”. In addition, the “T. cruzi SI (selectivity index)” value in series [1] (versus MRC-5 cytotoxicity) was greater than 1. Further, the “L. infantum SI (selectivity index)” value in series [6] (versus MRC-5 cytotoxicity) is greater than 1.

Regarding `CC(C)C1=CC2=C(O)C(O)=C3C(C)(C)CCC[C@]3(C)C2=C(O)C1=O` [Compound (2), 5,6-didehydro-7-hydroxy-taxodone], the half-inhibitory concentration (IC50) stood at 1.9 ± 0.4 µM in series [3] (Squib-427 trypomastigotes), 25.7 ± 1.5 µM in series [1] (TULAHUEN), 9.2 ± 0.6 µM in series [2] and 25.7 ± 1.5 µM in series [6]. For the same molecule, the IC50 at 72 h in series [4] (setting [8]) was 96.2 ± 5.8 µM.

As for `CC(C)C1=CC2=CC(=O)[C@H]3C(C)(C)CCC[C@]3(C)C2=C(O)C1=O` [Compound (3), taxodione], the IC50 was 9.8 ± 0.7 µM in series [3] (Squib-427 trypomastigotes); 6 to 31.6 µM in series [5]; 25.7 ± 2.3 µM in series [1] (setting [7]); 8.5 ± 0.7 µM in series [2] (setting [9]); 25.7 ± 2.3 µM in series [6] (setting [10]). Further, the “T. brucei SI (selectivity index)” value in series [3] amounted to 2.3. In series [4] (setting [8]), this molecule gave an IC50 at 72 h of 22.6 ± 1.3 µM. In series [2] (versus MRC-5 cytotoxicity), the “P. falciparum SI (selectivity index)” value was determined as 2.6.

On to `CC(C)c1cc2c(c(O)c1O)C13CCCC(C)(C)C1CC2OC3` (stereo not shown) [Compound (4), 20-deoxocarnosol], for which the IC50 was 6 ± 0.8 µM in series [3] (Squib-427 trypomastigotes); 6 to 31.6 µM in series [5]; 25.6 ± 1.2 µM in series [1] (setting [7]); 11.1 ± 0.6 µM in series [2] (setting [9]); 25.6 ± 1.2 µM in series [6] (setting [10]). Moreover, the 50% inhibitory concentration (IC50) at 72 h in series [4] stood at 6 ± 0.3 µM.

On to `CC(C)c1cc2c(c(O)c1O)C13CCCC(C)(C)C1C(O)C2OC3` (stereo not drawn) [Compound (5), 6α,11,12,-trihydroxy-7β,20-epoxy-8,11,13-abietatriene], for which the IC50 was 15.9 ± 1.4 µM in series [3] (Squib-427 trypomastigotes); 6 to 31.6 µM in series [5]; 24.4 ± 3.2 µM in series [1] (setting [7]); 31.6 ± 1.9 µM in series [2] (setting [9]); 24.4 ± 3.2 µM in series [6] (setting [10]). In series [4] (setting [8]), this molecule had a half-inhibitory concentration (IC50) at 72 h of 5.7 ± 0.9 µM.

Turning to `Nc1nc(N)nc(Nc2ccc([As]3SCC(CO)S3)cc2)n1` (stereo not shown) [Melarsoprol, reference compound], in series [3], the IC50 amounted to 0.005 ± 0.001 µM.

On to `CCCCCCCCCCCCCCCCOP(=O)([O-])OCC[N+](C)(C)C` [Miltefosine, reference compound], for which the IC50 in series [6] (setting [10]) was found to be 2.4 ± 0.8 µM.

As for `CC/C(=C(\c1ccccc1)c1ccc(OCCN(C)C)cc1)c1ccccc1` [Tamoxifen, reference compound], in series [4] (setting [8]), half-maximal inhibition (IC50 at 72 h) was put at 10.5 ± 2.5 µM.
